US8252588B2, “Stem cells having increased sensitivity to SDF-1 and methods of generating and using same” (Yeda Research and Development Co. Ltd., priority 2003, dated 2012)

Columns and labels:
[1] = test system: MMP-2/9; experiment: Zymography assay of MMP-2/9 activity in liver of CCl4 injected mice; type: in vivo; details: CCl4 treated NOD/SCID mice
[2] = test system: human CD34+ cells; experiment: Four hour homing of human CD34+ cells to the CCl4-injured liver of NOD/SCID mice; type: in vivo; details: non-irradiated NOD/SCID mice, 15 μl CCl4 24 hours prior, four hour assay
Description: (§1) Liver injury—Mice were injected intraperitoneally (IP) with 10, 15 or 30 μl/mouse of CCl4 and liver samples were collected within a few hours, or 1-2 days following injection, as indicated. In homing assays, mice were intraveneously (IV) transplanted with human MPB CD34^+ cells (0.6×10^6 cells/mouse) 4 hours prior to liver collection. Homing was blocked by preincubation of transplanted cells with 10 μg of anti CXCR4/mouse or by IP injection of 100 μg/mouse of a specific MMP2/9 inhibitor III (CalBiochem, catalogue #444251). Human progenitors in the blood circulation of engrafted mice transplanted a month before with human CB MNC (20×10^6 cells/mouse) were quantified by seeding 2×10^5 mononuclear cells/ml in colony forming unit assay as described [Kollet (2001) Blood 97:3283-3291]. CXCR4 expression was determined by flow cytometry.

[3] = test system: CXCR4; experiment: Human CXCR4 staining of peripheral blood MNC of chimeric mice, flow cytometry; type: in vivo; details: CCl4 treated chimeric mice
Description: as §1

[4] = test system: human colony forming progenitors; experiment: Human progenitors in blood circulation of engrafted mice, colony forming unit assay; type: in vivo; details: engrafted NOD/SCID mice, one day after single injection of 10 μl CCl4
Description: Data summarize three independent experiments.
as §1

[5] = test system: human CD34+ cells; experiment: Four hour homing of CD34+ cells to the liver of non-irradiated mice, local hepatic injection of human SDF-1; type: in vivo; details: non-irradiated NOD/SCID, human SDF-1 injected into hepatic parenchyma, IV infusion of cells
Description: FIG. 1a is a histogram showing inhibition of homing of human CB or MPB enriched CD34^+ cells to the murine BM, spleen and liver by neutralizing CXCR4 antibodies. Data presents inhibition as percentage of control. P≦0.008, comparing anti CXCR4 treated samples to control counterparts. […] Human SDF-1 was injected to the liver parenchyma as indicated. Cells were collected from the injected lobe to determine the homing of human CD34^+ cells.
Mice—NOD/SCID mice were bred and housed as previously described [Kollet (2001) Blood 97:3283-3291]. All experiments were approved by the animal care committee of the Weizmann Institute. Mice were sublethally irradiated (i.e., 375 cGy) as indicated, 24 hours prior to transplantation. Non-irradiated mice were used when local hepatic injection of SDF-1 was effected.
CXCR4 neutralization—Human CD34^+ cells were pre-incubated with anti human CXCR4 neutralizing mAb (10 μg/0.5×10^6 cells, 12G5, R&D) and were injected (0.5-0.6×10^6 CD34^+ cells per mouse) into the tail vein without washing. Mice were killed 4 hours, 16 hours, or 5-6 weeks following cell transplantation as indicated. Single cell suspensions of liver tissues were washed thoroughly with PBS. Homing of human cells was determined as described [Kollet (2001) Blood 97:3283-3291], acquiring 1.5×10^6 cells/sample.

[6] = test system: CXCR4; experiment: Surface CXCR4 expression on CD34+ cells by FACS; type: cell-based, human; details: CB CD34+ cells, 5 hours incubation
Description: CB CD34^+ cells were incubated for 5 hours with RPMI growth medium and HT1080 conditioned medium. Cells were stained with isotype control antibody as a negative control (Isot), or with CXCR4 antibody. Representative data of 3 experiments is shown.
Human cells—Cord blood (CB) cells and adult mobilized peripheral blood (MPB) cells were obtained after informed consent in accordance with procedures approved by the human ethics committee of the Weizmann Institute. CD34^+ cell enrichment was effected using magnetic bead separation as previously described [Kollet (2001) Blood 97:3283-3291]. CXCR4 expression was determined by flow cytometry using purified anti human CXCR4 (clone 12G5, R&D, Minneapolis, Minn.) and secondary F(ab′)2 fragment of goat anti mouse IgG FITC (Jackson, West Grove, Pa.).

Molecule: ClC(Cl)(Cl)Cl [CCl4, Carbon tetrachloride]
- MMP-9 expression in the liver [1]: emergence of MMP-9 expression
- activity of MMP-2 in the liver [1]: increased activity
- homing of human CD34+ cells to the injured liver [2]: rapidly induced homing
- CXCR4 expression on human MNC cells in the circulation [3]: increased level of CXCR4 expression
- recruitment of human colony forming progenitors from bone marrow to the circulation [4]: induced the recruitment

Molecule: SDF-1: chemokine stromal derived factor, ligand of CXCR4
- homing of CD34+ progenitors to the liver [5]: increased the homing

B1: purified MMP-2: purified recombinant MMP-2 (protein, UniProt P08253 110-660, looked up)
72 kDa type IV collagenase: YNFFPRKPKWDKNQITYRIIGYTPDLDPETVDDAFARAFQVWSDVTPLRFSRIHDGEADIMINFGRWEHGDGYPFDGKDGLLAHAFAPGTGVGGDSHFDDDELWTLGEGQVVRVKYGNADGEYCKFPFLFNGKEYNSCTDTGRSDGFLWCSTTYNFEKDGKYGFCPHEALFTMGGNAEGQPCKFPFRFQGTSYDSCTTEGRTDGYRWCGTTEDYDRDKKYGFCPETAMSTVGGNSEGAPCVFPFTFLGNKYESCTSAGRSDGKMWCATTANYDDDRKWGFCPDQGYSLFLVAAHEFGHAMGLEHSQDPGALMAPIYTYTKNFRLSQDDIKGIQELYGASPDIDLGTGPTPTLGPVTPEICKQDIVFDGIAQIRGEIFFFKDRFIWRTVTPRDKPMGPLLVATFWPELPEKIDAVYEAPQEEKAVFFAGNEYWIYSASTLERGYPKPLTSLGLPPDVQRVDAAFNWSKNKKTYIFAGDKFWRYNEVKKKMDPGFPKLIADAWNAIPDNLDAVVDLQGGGHSYFFKGAYYLKLENQSLKSVKFGSIKSDWLGC
- surface CXCR4 expression on enriched human CD34+ cells [6]: upregulation of CXCR4
